From ChEMBL document CHEMBL5149996, “Structure-Based Optimization and Discovery of M3258, a Specific Inhibitor of the Immunoproteasome Subunit LMP7 (β5i)” (J Med Chem, 2021)

What was measured:
[1] = biological target: T1, Proteasome subunit beta type-8 (Homo sapiens, UniProt P28062); test: Inhibition of 20S immunoproteasome beta-5i subunit in human PBMC using Ac-ANW-luciferin substrate preincubated for 2 hrs followed by substrate addition and measured after 30 mins by luminometric analysis; type: cell-based
T1 sequence (P28062 whole entry): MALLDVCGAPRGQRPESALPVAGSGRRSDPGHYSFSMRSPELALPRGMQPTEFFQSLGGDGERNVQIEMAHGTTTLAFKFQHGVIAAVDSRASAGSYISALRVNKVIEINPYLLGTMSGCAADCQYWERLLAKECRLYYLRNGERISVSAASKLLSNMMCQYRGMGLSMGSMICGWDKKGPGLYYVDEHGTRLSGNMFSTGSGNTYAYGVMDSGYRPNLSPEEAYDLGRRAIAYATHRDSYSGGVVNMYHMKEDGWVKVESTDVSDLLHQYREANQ

[2] = biological target: T1, Proteasome subunit beta type-8; test: Inhibition of human 20S immunoproteasome beta-5i subunit using Suc-LLVY-AMC as substrate preincubated for 2 hrs followed by substrate addition and measured after 1 hr by fluorescence intensity assay
[3] = biological target: T2, Proteasome Macropain subunit MB1 (Homo sapiens, UniProt P28074); test: Inhibition of human 20S proteasome beta5 subunit using Suc-LLVY-AMC as substrate preincubated for 2 hrs followed by substrate addition and measured after 1 hr by fluorescence intensity assay
T2 sequence (P28074 whole entry): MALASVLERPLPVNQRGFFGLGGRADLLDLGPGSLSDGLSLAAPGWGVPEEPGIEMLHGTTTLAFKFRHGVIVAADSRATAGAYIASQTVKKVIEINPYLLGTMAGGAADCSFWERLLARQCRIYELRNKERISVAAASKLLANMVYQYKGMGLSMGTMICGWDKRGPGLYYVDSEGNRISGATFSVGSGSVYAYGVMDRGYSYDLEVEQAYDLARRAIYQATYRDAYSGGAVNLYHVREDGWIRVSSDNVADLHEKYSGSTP

[4] = species on record: Homo sapiens; test: Selectivity ratio of IC50 for inhibition of 20S proteasome beta5 subunit in human A549 cells to IC50 for inhibition of 20S immunoproteasome beta-5i subunit in human PBMC; type: cell-based
[5] = biological target: T2, Proteasome Macropain subunit MB1; test: Inhibition of 20S proteasome beta5 subunit in human A549 cells using Suc-LLVY-luciferin substrate preincubated for 2 hrs followed by substrate addition and measured after 30 mins by luminometric analysis; type: cell-based
[6] = species on record: Homo sapiens; test: Selectivity ratio of IC50 for inhibition of human 20S proteasome beta5 subunit to IC50 for inhibition of human 20S immunoproteasome beta-5i subunit
[7] = Intrinsic clearance in mouse liver microsomes measured per mg protein; type: ADME, Microsome; settings: read-out: CLH
[8] = Lipophilicity, log P of the compound; type: physicochemical; settings: octanol/water
[9] = Clearance in mouse hepatocytes measured per million of cells; type: ADME, cell-based, Hepatocyte; settings: read-out: CLH

Structure (SMILES) | IC50 [1] [nM] | IC50 [2] [nM] | IC50 [3] [nM] | Ratio IC50 [4] | IC50 [5] [nM] | Ratio IC50 [6] | microsomal CLint [7] [µL/min/mg] | logP [8] | hepatocyte CLint [9] [µL/min/1e6 cells]
O=C(Cc1ccccc1)N[C@@H](Cc1coc2c(Cl)cccc12)B(O)O | 41.5 | 4.1 | 860 | 49 | 2060 | 210 |  |  | 
O=C(Cc1ccccc1)N[C@@H](Cc1ccc(Cl)cc1)B(O)O | 983 | 38 | 5600 | 8.9 | 8750 | 148 |  |  | 
Cc1ccc(C[C@H](NC(=O)Cc2ccccc2)B(O)O)cc1 | 438 | 91 | 6300 | 14 | 6290 | 69 |  |  | 
COCC(=O)N[C@@H](Cc1coc2ccccc12)B(O)O | 26.7 | 6 | 820 | 20 | 520 | 137 |  |  | 
O=C(N[C@@H](Cc1coc2ccccc12)B(O)O)[C@H]1CCCO1 | 40 | 5.9 | 930 | 20 | 817 | 158 | 48 | 2.1 | 90.7
O=C(Cc1ncccn1)N[C@@H](Cc1coc2ccccc12)B(O)O | 15.5 | 2.3 | 230 | 13 | 204 | 101 |  |  | 
Cc1ccc(C[C@H](NC(=O)Cc2ccccc2)B(O)O)c(C)c1 | 896 | 130 | 26000 | > 33 | > 30000 | 194 |  |  | 
O=C(N[C@@H](Cc1coc2ccccc12)B(O)O)[C@@H]1CCCO1 | 400 | 190 | 24000 | 38 | 15000 | 128 | 34 | 1.9 | 99.7
O=C(Cc1ccncc1)N[C@@H](Cc1coc2ccccc12)B(O)O | 71 | 11 | 2300 | 36 | 2540 | 222 |  |  | 
CC(=O)N[C@@H](Cc1coc2ccccc12)B(O)O | 27.1 | 18 | 1400 | 16 | 420 | 70 |  |  | 
O=C(N[C@@H](Cc1coc2ccccc12)B(O)O)[C@@H]1CCOC1 | 13.7 | 10 | 4300 | 123 | 1690 | 410 | 19 | 1.85 | 26.7
O=C(N[C@@H](Cc1coc2ccccc12)B(O)O)[C@@H]1C[C@@H]2CC[C@H]1O2 |  | 89 | 15000 |  |  | 173 |  |  | 
O=C(Cc1ccccc1)N[C@@H](C[C@@H]1COc2c(Cl)cccc21)B(O)O | 25 | 1.8 | 2900 | 243 | 6100 | 1620 |  |  | 
O=C(Cc1ccccc1)N[C@@H](Cc1c(Cl)oc2ccccc12)B(O)O | 824 | 200 | 20000 |  | 16500 | 104 |  |  | 
O=C(Cc1ccccc1)N[C@@H](Cc1ccccc1)B(O)O | 643 | 160 | 16000 | 15 | 9560 | 99 |  |  | 
Cc1ccc(C[C@H](NC(=O)Cc2ccccc2)B(O)O)cc1C | 434 | 85 | 15000 | 56 | 24500 | 182 |  |  | 
Cc1cccc2c1OC[C@H]2C[C@H](NC(=O)Cc1ccccc1C#N)B(O)O | 60 | 4.4 | 14000 | > 496 | > 30000 | 3150 |  |  | 
